Laboratory results: US8148391B2 (Cephalon, Inc., priority 2006, dated 2012)

Tests used:
[1] = molecular target: T1, c-Met (cytoplasmic domain) (Homo sapiens, UniProt P08581); assay: c-Met Kinase Assay (same methods as for ALK, with modifications); format: biochemical; conditions: c-Met kinase inhibition, 1 μM ATP; read-out: cMet Activity
T1 construct: 10 ng/mL c-Met (cytoplasmic domain, Invitrogen Corporation #PV3143); purchased Invitrogen Corporation PV3143
How it was run: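 IC50 values were fitted by variable-slope sigmoidal regression of percent inhibition against log compound concentration. Phosphorylation was read with Eu-N1 PT66 antibody after a 15 min, 37 °C reaction. The reaction was initiated with 10 ng/mL c-Met cytoplasmic domain on wells coated with 10 μg/mL PLC-γ in TBS.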

[2] = molecular target: T2, baculovirus-expressed ALK (Homo sapiens, UniProt Q9UM73); assay: ALK Kinase Assay (ELISA-type, time-resolved fluorescence); format: biochemical; conditions: ALK kinase inhibition, 1 μM ATP; read-out: ALK Activity
T2 construct: host or cells: baculovirus expression system
T2 sequence (Q9UM73 19-1620): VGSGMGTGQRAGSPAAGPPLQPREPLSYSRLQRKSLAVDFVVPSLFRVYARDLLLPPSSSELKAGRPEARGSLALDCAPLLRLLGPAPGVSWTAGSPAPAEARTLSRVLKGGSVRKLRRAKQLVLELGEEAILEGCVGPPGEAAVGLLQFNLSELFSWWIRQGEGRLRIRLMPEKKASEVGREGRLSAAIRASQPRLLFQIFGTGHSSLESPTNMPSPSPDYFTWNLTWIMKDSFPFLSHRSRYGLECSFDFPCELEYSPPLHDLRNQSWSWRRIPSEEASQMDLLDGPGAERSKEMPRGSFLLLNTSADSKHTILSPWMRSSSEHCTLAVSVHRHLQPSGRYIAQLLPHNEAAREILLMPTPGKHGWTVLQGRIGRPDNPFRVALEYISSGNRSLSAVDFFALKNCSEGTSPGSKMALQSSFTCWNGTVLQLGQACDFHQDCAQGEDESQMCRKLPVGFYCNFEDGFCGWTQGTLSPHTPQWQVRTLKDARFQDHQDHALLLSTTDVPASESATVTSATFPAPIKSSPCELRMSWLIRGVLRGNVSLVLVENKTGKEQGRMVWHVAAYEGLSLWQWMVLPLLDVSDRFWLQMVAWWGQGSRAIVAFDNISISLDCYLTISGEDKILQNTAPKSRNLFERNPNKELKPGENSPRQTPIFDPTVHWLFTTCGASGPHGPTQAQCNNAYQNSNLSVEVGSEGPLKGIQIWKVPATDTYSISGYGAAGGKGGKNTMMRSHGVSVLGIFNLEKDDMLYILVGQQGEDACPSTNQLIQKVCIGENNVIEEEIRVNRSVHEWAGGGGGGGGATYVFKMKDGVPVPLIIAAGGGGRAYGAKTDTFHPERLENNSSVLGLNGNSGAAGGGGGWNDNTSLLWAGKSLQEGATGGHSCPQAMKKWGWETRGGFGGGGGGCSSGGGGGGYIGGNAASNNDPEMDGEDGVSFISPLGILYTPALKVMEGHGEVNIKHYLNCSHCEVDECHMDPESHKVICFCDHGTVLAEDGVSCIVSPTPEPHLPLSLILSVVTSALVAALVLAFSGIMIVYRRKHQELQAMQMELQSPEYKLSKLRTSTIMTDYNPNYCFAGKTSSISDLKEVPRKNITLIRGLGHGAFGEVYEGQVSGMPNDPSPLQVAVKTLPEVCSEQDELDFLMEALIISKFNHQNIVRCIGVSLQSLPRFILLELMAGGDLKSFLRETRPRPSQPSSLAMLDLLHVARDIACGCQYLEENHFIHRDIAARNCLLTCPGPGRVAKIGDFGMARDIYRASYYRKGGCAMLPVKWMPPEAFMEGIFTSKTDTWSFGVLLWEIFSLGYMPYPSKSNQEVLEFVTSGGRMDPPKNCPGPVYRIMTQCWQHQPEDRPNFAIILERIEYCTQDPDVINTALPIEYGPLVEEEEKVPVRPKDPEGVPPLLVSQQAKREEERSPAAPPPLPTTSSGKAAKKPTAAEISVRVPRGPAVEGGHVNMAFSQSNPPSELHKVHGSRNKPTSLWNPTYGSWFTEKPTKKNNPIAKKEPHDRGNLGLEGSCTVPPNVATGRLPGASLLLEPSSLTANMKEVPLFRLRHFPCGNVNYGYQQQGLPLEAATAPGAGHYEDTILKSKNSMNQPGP
How it was run: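 Wells were coated with phospholipase C-γ at 10 μg/mL in Tris-buffered saline. Adding 30 ng/ml enzyme started the reaction, which ran at 37° C for 15 minutes before Eu-N1 PT66 antibody detection. Percent inhibition versus log10 concentration gave IC50 by variable-slope fit.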

T1 sequence (P08581 956-1390 limits assumed): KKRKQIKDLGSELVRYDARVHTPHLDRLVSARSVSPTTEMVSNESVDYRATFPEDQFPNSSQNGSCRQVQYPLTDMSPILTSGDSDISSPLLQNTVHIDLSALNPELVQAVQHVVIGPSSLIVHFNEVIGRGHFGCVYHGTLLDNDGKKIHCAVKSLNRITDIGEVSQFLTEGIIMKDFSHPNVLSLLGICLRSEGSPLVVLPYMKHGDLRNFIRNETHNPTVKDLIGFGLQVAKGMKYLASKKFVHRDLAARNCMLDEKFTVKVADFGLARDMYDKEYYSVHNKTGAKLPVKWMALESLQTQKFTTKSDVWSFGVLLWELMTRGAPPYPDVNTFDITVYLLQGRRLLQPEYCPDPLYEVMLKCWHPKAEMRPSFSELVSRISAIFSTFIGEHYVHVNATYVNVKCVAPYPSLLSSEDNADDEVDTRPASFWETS

| SMILES | IC50 [1] [nM] | IC50 [2] [nM] |
| --- | --- | --- |
| C#CCNC(=O)c1cccc(F)c1Nc1nc(Nc2ccc3c(c2)OCCCN3C(=O)CN2CCCC2)ncc1Cl [Example 1716, 2-{5-Chloro-2-[9-(2-pyrrolidin-1-yl-acetyl)-6,7,8,9-tetrahydro-5-oxa-9-aza-benzocyclohepten-3-ylamino]-pyrimidin-4-ylamino}-3-fluoro-N-prop-2-ynyl-benzamide] | < 100 | 100 to 1000 |
| CN1C(=O)OCCc2cc(Nc3ncc(Cl)c(Nc4c(F)cccc4OCC(O)CO)n3)ccc21 (centres unmarked) [Example 1717, 2-{5-Chloro-4-[2-(2,3-dihydroxy-propoxy)-6-fluoro-phenylamino]-pyrimidin-2-ylamino}-5-methyl-8,9-dihydro-5H-7-oxa-5-aza-benzocyclohepten-6-one] | < 100 | 1000 to 10000 |
| C#CCNC(=O)c1cccc(F)c1Nc1nc(Nc2ccc3c(c2)OCCCN3CCN2CCCC2)ncc1Cl [Example 1719, 2-{5-Chloro-2-[9-(2-pyrrolidin-1-yl-ethyl)-6,7,8,9-tetrahydro-5-oxa-9-aza-benzocyclohepten-3-ylamino]-pyrimidin-4-ylamino}-3-fluoro-N-prop-2-ynyl-benzamide] | < 100 | < 100 |
| CCN1CC(O)(CO)COc2ccc(Nc3ncc(Cl)c(Nc4c(F)cccc4C(=O)NC)n3)cc21 (centres unmarked) [Example 1720, 2-[5-Chloro-2-(9-ethyl-7-hydroxy-7-hydroxymethyl-6,7,8,9-tetrahydro-5-oxa-9-aza-benzocyclohepten-2-ylamino)-pyrimidin-4-ylamino]-3-fluoro-N-methyl-benzamide] | 100 to 1000 | < 100 |
| C#CCNC(=O)c1cccc(F)c1Nc1nc(Nc2ccc3c(c2)N(CC)CC(O)(CO)CO3)ncc1Cl (centres unmarked) [Example 1721, 2-[5-Chloro-2-(9-ethyl-7-hydroxy-7-hydroxymethyl-6,7,8,9-tetrahydro-5-oxa-9-aza-benzocyclohepten-2-ylamino)-pyrimidin-4-ylamino]-3-fluoro-N-prop-2-ynyl-benzamide] | 100 to 1000 | 100 to 1000 |
| CCN1CC(N2CCOCC2)COc2ccc(Nc3ncc(Cl)c(Nc4c(F)cccc4C(=O)NC)n3)cc21 (centres unmarked) [Example 1722, 2-[5-Chloro-2-(9-ethyl-7-morpholin-4-yl-6,7,8,9-tetrahydro-5-oxa-9-aza-benzocyclohepten-2-ylamino)-pyrimidin-4-ylamino]-3-fluoro-N-methyl-benzamide] | < 100 | < 100 |
| C#CCNC(=O)c1cccc(F)c1Nc1nc(Nc2ccc3c(c2)OCCCN3C(C)=O)ncc1Cl [Example 1725, 2-[2-(9-Acetyl-6,7,8,9-tetrahydro-5-oxa-9-aza-benzocyclohepten-3-ylamino)-5-chloro-pyrimidin-4-ylamino]-3-fluoro-N-prop-2-ynyl-benzamide] | < 100 | < 100 |
| COCCN1CCc2ccc(Nc3ncc(Cl)c(Nc4c(F)cccc4OCC(=O)OC)n3)cc2CC1 [Example 1727, (2-{5-Chloro-2-[3-(2-methoxy-ethyl)-2,3,4,5-tetrahydro-1H-benzo[d]azepin-7-ylamino]-pyrimidin-4-ylamino}-3-fluoro-phenoxy)-acetic acid methyl ester] | 1000 to 10000 | 1000 to 10000 |
| C#CCNC(=O)c1cc(F)cc(F)c1Nc1nc(Nc2ccc3c(c2)CCN(CCOC)CC3)ncc1Cl [Example 1728, 2-{5-Chloro-2-[3-(2-methoxy-ethyl)-2,3,4,5-tetrahydro-1H-benzo[d]azepin-7-ylamino]-pyrimidin-4-ylamino}-3,5-difluoro-N-prop-2-ynyl-benzamide] | < 100 | 100 to 1000 |
| C#CCNC(=O)c1cc(F)cc(F)c1Nc1nc(Nc2ccc3c(c2)NC(=O)CCC3)ncc1Cl [Example 1729, 2-[5-Chloro-2-(2-oxo-2,3,4,5-tetrahydro-1H-benzo[b]azepin-8-ylamino)-pyrimidin-4-ylamino]-3,5-difluoro-N-prop-2-ynyl-benzamide] | 100 to 1000 | 1000 to 10000 |
| COCCN1CCc2ccc(Nc3ncc(Cl)c(Nc4ccccc4S(=O)(=O)N4CCCC4)n3)cc2CC1 [Example 1730, 5-Chloro-N*2*-[3-(2-methoxy-ethyl)-2,3,4,5-tetrahydro-1H-benzo[d]azepin-7-yl]-N*4*-[2-(pyrrolidine-1-sulfonyl)-phenyl]-pyrimidine-2,4-diamine] | < 100 | < 100 |
| O=C1CCCc2ccc(Nc3ncc(Cl)c(Nc4ccccc4S(=O)(=O)N4CCCC4)n3)cc2N1 [Example 1731, 8-{5-Chloro-4-[2-(pyrrolidine-1-sulfonyl)-phenylamino]-pyrimidin-2-ylamino}-1,3,4,5-tetrahydro-benzo[b]azepin-2-one] | < 100 | < 100 |
| CN1C(=O)OCCc2cc(Nc3ncc(Cl)c(Nc4c(F)cccc4OCCO)n3)ccc21 [Example 1732, 2-{5-Chloro-4-[2-fluoro-6-(2-hydroxy-ethoxy)-phenylamino]-pyrimidin-2-ylamino}-5-methyl-8,9-dihydro-5H-7-oxa-5-aza-benzocyclohepten-6-one] | < 100 | < 100 |
| C#CCNC(=O)c1cccc(F)c1Nc1nc(Nc2ccc3c(c2)N(C(C)C)CCCO3)ncc1Cl [Example 1733, 2-[5-Chloro-2-(9-isopropyl-6,7,8,9-tetrahydro-5-oxa-9-aza-benzocyclohepten-2-ylamino)-pyrimidin-4-ylamino]-3-fluoro-N-prop-2-ynyl-benzamide] | 100 to 1000 | < 100 |
| CNC(=O)c1cccc(F)c1Nc1nc(Nc2ccc3c(c2)N(C(C)C)CCCO3)ncc1Cl [Example 1734, 2-[5-Chloro-2-(9-isopropyl-6,7,8,9-tetrahydro-5-oxa-9-aza-benzocyclohepten-2-ylamino)-pyrimidin-4-ylamino]-3-fluoro-N-methyl-benzamide] | < 100 | < 100 |
| C#CCNC(=O)c1cccc(F)c1Nc1nc(Nc2ccc3c(c2)OCC(O)(CO)CN3CC)ncc1Cl (centres unmarked) [Example 1735, 2-[5-Chloro-2-(9-ethyl-7-hydroxy-7-hydroxymethyl-6,7,8,9-tetrahydro-5-oxa-9-aza-benzocyclohepten-3-ylamino)-pyrimidin-4-ylamino]-3-fluoro-N-prop-2-ynyl-benzamide] | 100 to 1000 | 100 to 1000 |
| CCN1CC(O)(CO)COc2cc(Nc3ncc(Cl)c(Nc4c(F)cccc4C(=O)NC)n3)ccc21 (centres unmarked) [Example 1736, 2-[5-Chloro-2-(9-ethyl-7-hydroxy-7-hydroxymethyl-6,7,8,9-tetrahydro-5-oxa-9-aza-benzocyclohepten-3-ylamino)-pyrimidin-4-ylamino]-3-fluoro-N-methyl-benzamide] | < 100 | 100 to 1000 |
| CNC(=O)c1ccccc1Nc1nc(Nc2ccc3c(c2)CCOC(=O)N3C)ncc1Cl [Example 1741, 2-[5-Chloro-2-(5-methyl-6-oxo-5,6,8,9-tetrahydro-7-oxa-5-aza-benzocyclohepten-2-ylamino)-pyrimidin-4-ylamino]-N-methylbenzamide] | < 100 | < 100 |
| CNC(=O)c1cccc(F)c1Nc1nc(Nc2ccc3c(c2)CCOC(=O)N3C)ncc1Cl [Example 1742, 3-Fluoro-2-[5-chloro-2-(5-methyl-6-oxo-5,6,8,9-tetrahydro-7-oxa-5-aza-benzocyclohepten-2-ylamino)-pyrimidin-4-ylamino]-N-methyl-benzamide] | < 100 | < 100 |
| CNC(=O)c1cccc(Cl)c1Nc1nc(Nc2ccc3c(c2)CCOC(=O)N3C)ncc1Cl [Example 1743, 3-Chloro-2-[5-chloro-2-(5-methyl-6-oxo-5,6,8,9-tetrahydro-7-oxa-5-aza-benzocyclohepten-2-ylamino)-pyrimidin-4-ylamino]-N-methyl-benzamide] | < 100 | 1000 to 10000 |
| CNC(=O)c1cccc(C)c1Nc1nc(Nc2ccc3c(c2)CCOC(=O)N3C)ncc1Cl [Example 1744, 2-[5-Chloro-2-(5-methyl-6-oxo-5,6,8,9-tetrahydro-7-oxa-5-aza-benzocyclohepten-2-ylamino)-pyrimidin-4-ylamino]-3,N-dimethyl-benzamide] | < 100 | 1000 to 10000 |
| CCN1C(=O)OCCc2cc(Nc3ncc(Cl)c(Nc4ccccc4C(=O)NC)n3)ccc21 [Example 1745, 2-[5-chloro-2-(5-ethyl-6-oxo-5,6,8,9-tetrahydro-7-oxa-5-aza-benzocyclohepten-2-ylamino)-pyrimidin-4-ylamino]-N-methyl-benzamide] | < 100 | < 100 |
| CCN1C(=O)OCCc2cc(Nc3ncc(Cl)c(Nc4c(F)cccc4C(=O)NC)n3)ccc21 [Example 1746, 2-[5-chloro-2-(5-ethyl-6-oxo-5,6,8,9-tetrahydro-7-oxa-5-aza-benzocyclohepten-2-ylamino)-pyrimidin-4-ylamino]-3-fluoro-N-methyl-benzamide] | < 100 | < 100 |
| CNC(=O)c1sccc1Nc1nc(Nc2ccc3c(c2)CCOC(=O)N3C)ncc1Cl [Example 1747, 3-[5-Chloro-2-(5-methyl-6-oxo-5,6,8,9-tetrahydro-7-oxa-5-aza-benzocyclohepten-2-ylamino)-pyrimidin-4-ylamino]-thiophene-2-carboxylic acid methylamide] | < 100 | 100 to 1000 |
| CN1C(=O)OCCc2cc(Nc3ncc(Cl)c(Nc4ccccc4OCC#N)n3)ccc21 [Example 1748, {2-[5-chloro-2-(5-methyl-6-oxo-5,6,8,9-tetrahydro-7-oxa-5-aza-benzocyclohepten-2-ylamino)-pyrimidin-4-ylamino]-phenoxy}-acetonitrile] | < 100 | < 100 |
